| Structure (SMILES) | melting point |
| --- | --- |
| Cc1nc(N2CCN(c3ccccc3)CC2)c2[nH]c(-c3ccccc3)cc2n1.Cl (hydrate or solvate) | 232 to 234.5 °C |
| Cc1nc(N2CCCCC2)c2[nH]c(-c3c(F)cccc3F)cc2n1.Cl (hydrate or solvate) | > 280 °C |
| Cc1nc(N2CCCCC2)c2[nH]c(-c3cc(F)ccc3F)cc2n1.Cl (hydrate or solvate) | 279 to 281 °C |
| Cc1nc(N2CCCCC2)c2[nH]c(-c3ccccc3Cl)cc2n1.Cl (hydrate or solvate) | 240 to 241.5 °C |
| Cc1nc(N2CCCCC2)c2[nH]c(-c3cc(F)cc(F)c3)cc2n1.Cl (hydrate or solvate) | > 280 °C |
| Cc1nc(N2CCCCC2)c2[nH]c(-c3ccc(O)c(F)c3)cc2n1.Cl (hydrate or solvate) | > 280 °C |
| Cc1nc(N2CCCCC2)c2[nH]c(-c3cnn(-c4ccccc4)c3C)cc2n1.Cl (hydrate or solvate) | > 280 °C |
| Cc1nc(N2CCCCC2)c2[nH]c(-c3sc(C)nc3C)cc2n1.Cl (hydrate or solvate) | 272 to 273.5 °C |
| Cc1nc(N2CCCCC2)c2[nH]c(-c3cc(F)cc(F)c3)c(C)c2n1.Cl (hydrate or solvate) | 242 to 245 °C |
| CCc1c(-c2ccccc2)[nH]c2c(N3CCCCC3)nc(C)nc12.Cl (hydrate or solvate) | 261 to 263 °C |
| Cc1nc(N2CCCCC2)c2[nH]c(-c3ccc(-c4ccc(F)c(Cl)c4)o3)cc2n1.Cl (hydrate or solvate) | > 280 °C |
| COc1ccccc1-c1cc2nc(C)nc(N3CCCCC3)c2[nH]1.Cl (hydrate or solvate) | 261 to 263 °C |
| Cc1nc(N2CCCCC2)c2[nH]c(-c3sc4ccccc4c3C)cc2n1.Cl (hydrate or solvate) | > 280 °C |
| COc1ccc(-c2c(C)[nH]c3c(N4CCCCC4)nc(C)nc23)cc1.Cl (hydrate or solvate) | 170 °C (dec.) |
| Cc1nc(N2CCCCC2)c2[nH]c(-c3cc4ccccc4s3)cc2n1.Cl (hydrate or solvate) | > 280 °C |
| COc1cccc2cc(-c3cc4nc(C)nc(N5CCCCC5)c4[nH]3)oc12.Cl (hydrate or solvate) | > 280 °C |
| Cc1nc(N2CCCCC2)c2[nH]c(C)c(Oc3ccccc3)c2n1.Cl (hydrate or solvate) | > 280 °C |
| Cc1nc(N2CCCCC2)c2[nH]c(C)c(Cc3ccccc3)c2n1.Cl (hydrate or solvate) | > 240 °C (dec.) |
| CSc1nc(N2CCCCC2)c2[nH]c(-c3ccccc3)cc2n1.Cl (hydrate or solvate) | 281 to 283 °C (dec.) |
| Cc1nc(N2CCC2)c2[nH]c(-c3ccccc3)cc2n1.Cl (hydrate or solvate) | > 300 °C (dec.) |
| Cl.c1ccc(-c2cc3ncnc(N4CCCCC4)c3[nH]2)nc1 (hydrate or solvate) | 279 to 280 °C |
| Cc1nc(N2CCCCC2)c2[nH]c(-c3cnccn3)cc2n1.Cl (hydrate or solvate) | 280 to 283.5 °C |
| Cl.c1ccc2oc(-c3cc4ncnc(N5CCCCC5)c4[nH]3)cc2c1 (hydrate or solvate) | 278.5 to 281 °C |
| Cc1nc(N2CCCCC2)c2[nH]c(-c3ccccc3)c(-c3ccccc3)c2n1.Cl (hydrate or solvate) | 169 to 171 °C |

| Structure (SMILES) | melting point |
| --- | --- |
| CCc1nc(N2CCCCC2)c2[nH]c(-c3ccccc3)cc2n1.Cl (hydrate or solvate) [Example 68c, 2-Ethyl-6-phenyl-4-piperidylpyrrolo[3,2-d]pyrimidine Hydrochloride Monohydrate] | 286 to 288 °C (dec.) |
| Cc1nc(N2CCCCC2)c2[nH]c(-c3cccc(Cl)c3)cc2n1.Cl (hydrate or solvate) [Example 70e, 6-(3-Chlorophenyl)-2-methyl-4-piperidylpyrrolo[3,2-d]pyrimidine Hydrochloride Monohydrate] | 244.5 to 246 °C (dec.) |
| COc1ccc(-c2cc3nc(C)nc(N4CCCCC4)c3[nH]2)cc1.Cl (hydrate or solvate) [Example 71e, 4-Methoxy-1-(2-methyl-4-piperidylpyrrolo[4,5-d]pyrimidin-6-yl)benzene Hydrochloride Monohydrate] | 267.5 to 268 °C (dec.) |
| Cc1nc(N2CCCCC2)c2[nH]c(-c3ccc(O)cc3)cc2n1.Cl (hydrate or solvate) [Example 72, 2-methyl-4-piperidyl-6-(4-hydroxyphenyl)pyrrolo[3,2-d]pyrimidine] | > 300 °C (dec.) |
| Cc1nc(N2CCCCC2)c2[nH]c(-c3ccccn3)cc2n1.Cl (hydrate or solvate) [Example 77, 2-Methyl-4-piperidyl-6-(2-pyridyl)pyrrolo[3,2-d]pyrimidine Hydrochloride Hydrate] | > 280 °C |
| Cc1nc(N2CCCCC2)c2[nH]c(C3CCCCC3)cc2n1.Cl (hydrate or solvate) [Example 80d, 6-Cyclohexyl-2-methyl-4-piperidylpyrrolo[3,2-d]pyrimidine Hydrochloride Hydrate] | > 280 °C |
| Cc1nc(N2CCCCC2)c2[nH]c(C34C[C@H]5C[C@@H](C3)C[C@@H](C4)C5)cc2n1.Cl (hydrate or solvate) [Example 81d, 6-Adamantanyl-2-methyl-4-piperidylpyrrolo[3,2-d]pyrimidine Hydrochloride Monohydrate] | > 280 °C |
| Cc1nc(N2CCCCC2)c2[nH]c(-c3cc4ccccc4o3)cc2n1.Cl (hydrate or solvate) [Example 85, 2-(2-Methyl-4-piperidylpyrrolo[4,5-d]pyrimidin-6-yl)benzo[b]furan Hydrochloride Monohydrate] | > 280 °C |
| Cc1nc(N2CCCCC2)c2[nH]c(-c3ccccc3)c(C)c2n1.Cl (hydrate or solvate) [Example 90, 2,7-Dimethyl-6-phenyl-4-piperidylpyrrolo[3,2-d]pyrimidine Hydrochloride Monohydrate] | > 280 °C |
| Cc1nc(N2CCCCC2)c2[nH]c(C(C)(C)C)cc2n1.Cl (hydrate or solvate) [Example 97, 6-(tert-Butyl)-2-methyl-4-piperidylpyrrolo[3,2-d]pyrimidine Hydrochloride Hydrate] | 256 to 258 °C |
| Cc1nc(N2CCCCC2)c2[nH]c(-c3ccn(S(=O)(=O)c4ccccc4)c3)cc2n1.Cl (hydrate or solvate) [Example 101, 3-(2-Methyl-4-piperidylpyrrolo[4,5-d]pyrimidin-6-yl)-1-(phenylsulfonyl)pyrrole Hydrochloride Hydrate] | 183 to 185.5 °C |
| Cc1nc(N2CCCCC2)c2[nH]c(-c3ccccc3F)cc2n1.Cl (hydrate or solvate) [Example 102, 6-(2-Fluorophenyl)-2-methyl-4-piperidylpyrrolo[3,2-d]pyrimidine Hydrochloride Monohydrate] | 287 to 289 °C |
| Cc1nc(N2CCCCC2)c2[nH]c(-c3cccc(F)c3)cc2n1.Cl (hydrate or solvate) [Example 103, 6-(3-Fluorophenyl)-2-methyl-4-piperidylpyrrolo[3,2-d]pyrimidine Hydrochloride Monohydrate] | > 285 °C |
| Cc1nc(N2CCCCC2)c2[nH]c(C)cc2n1.Cl (hydrate or solvate) [Example 104, 2,6-Dimethyl-4-piperidylpyrrolo[3,2-d]pyrimidine Hydrochloride Hydrate] | 244 to 245.5 °C |
| Cc1nc(N2CCCCC2)c2[nH]c(-c3cccc(C(F)(F)F)c3)cc2n1.Cl (hydrate or solvate) [Example 107, 2-Methyl-4-piperidyl-6-[3-(trifluoromethyl)phenyl]pyrrolo[3,2-d]pyrimidine Hydrochloride Monohydrate] | 241 to 243 °C |
| Cc1nc(N2CCCCC2)c2[nH]c(-c3cc(C)oc3C)cc2n1.Cl (hydrate or solvate) [Example 108, 2,5-Dimethyl-3-(2-methyl-4-piperidylpyrrolo[4,5-d]pyrimidin-6-yl)furan Hydrochloride Monohydrate] | 238 to 240 °C |
| Cc1nc(N2CCCCC2)c2[nH]c(-c3ccc(C(F)(F)F)cc3)cc2n1.Cl (hydrate or solvate) [Example 111, 2-Methyl-4-piperidyl-6-[4-(trifluoromethyl)phenyl]pyrrolo[3,2-d]pyrimidine Hydrochloride Hydrate] | 278 to 280 °C |
| Cc1nc(N2CCCCC2)c2[nH]c(-c3ccc4c(c3)OCO4)cc2n1.Cl (hydrate or solvate) [Example 114, 5-[2-Methyl-4-piperidylpyrrolo[4,5-d]pyrimidin-6-yl]-2H-benzo[d]1,3-dioxolane Hydrochloride Monohydrate] | > 280 °C |
| Cc1nc(N2CCCCC2)c2[nH]c(-c3cc(F)c(F)c(F)c3)cc2n1.Cl (hydrate or solvate) [Example 116, 2-Methyl-4-piperidyl-6-(3,4,5-trifluorophenyl)pyrrolo[3,2-d]pyrimidine Hydrochloride Hydrate] | > 280 °C |
| Cc1nc(N2CCCCC2)c2[nH]c(-c3ccc(Cl)c(Cl)c3)cc2n1.Cl (hydrate or solvate) [Example 118, 6-(3,4-Dichlorophenyl)-2-methyl-4-piperidylpyrrolo[3,2-d]pyrimidine Hydrochloride Monohydrate] | 265 to 268 °C |
| COc1ccc(-c2cc3nc(C)nc(N4CCCCC4)c3[nH]2)cc1F.Cl (hydrate or solvate) [Example 119, 2-Fluoro-1-methoxy-4-[2-methyl-4-piperidylpyrrolo[4,5-d]pyrimidin-6-yl]benzene Hydrochloride Hydrate] | 262 to 264 °C |
| Cc1nc(N2CCCCC2)c2[nH]c(-c3ccc(F)c(F)c3)cc2n1.Cl (hydrate or solvate) [Example 121, 6-(3,4-Difluorophenyl)-2-methyl-4-piperidylpyrrolo[3,2-d]pyrimidine Hydrochloride Hydrate] | 243 to 245 °C |
| Cc1nc(N2CCCCC2)c2[nH]c(-c3ccc(SC(F)(F)F)cc3)cc2n1.Cl (hydrate or solvate) [Example 123, Trifluoro[4-(2-methyl-4-piperidylpyrrolo[4,5-d]pyrimidin-6-yl)phenylthio]methane Hydrochloride Monohydrate] | 270 to 272 °C |
